Experimental data published in US20080234262A1 (Wyeth, priority 2007, published 2008).

Assays:
PI3K = PI3K (Homo sapiens, UniProt P42336); assay: Fluorescence polarization assay for PI3K; assay type: biochemical; conditions: PI3Kα; read-out: PI3Kα IC50;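 further: PI3K kinase reaction on PIP2 with ATP, 30-60 min, product sensed by GST-GRP with red probe in fluorescence polarization (mP), controls without enzyme and at zero time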
breast line MDA468 = assay: In vitro cell culture growth assay (MTS), MDA468; assay type: cell-based, human; conditions: MDA468 cells, three days after drug treatment
How it was run: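 MDA468 or LNCap cells received inhibitors one day after plating and were grown for three days. Viable cell density read by MTS conversion, absorbance 490 nm, expressed as percent of control growth versus vehicle-treated cells on the same plate.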

prostate line LNCap = assay: In vitro cell culture growth assay (MTS), LNCap; assay type: cell-based, human; conditions: LNCap cells, three days after drug treatment

Sequence of PI3K (P42336 whole entry): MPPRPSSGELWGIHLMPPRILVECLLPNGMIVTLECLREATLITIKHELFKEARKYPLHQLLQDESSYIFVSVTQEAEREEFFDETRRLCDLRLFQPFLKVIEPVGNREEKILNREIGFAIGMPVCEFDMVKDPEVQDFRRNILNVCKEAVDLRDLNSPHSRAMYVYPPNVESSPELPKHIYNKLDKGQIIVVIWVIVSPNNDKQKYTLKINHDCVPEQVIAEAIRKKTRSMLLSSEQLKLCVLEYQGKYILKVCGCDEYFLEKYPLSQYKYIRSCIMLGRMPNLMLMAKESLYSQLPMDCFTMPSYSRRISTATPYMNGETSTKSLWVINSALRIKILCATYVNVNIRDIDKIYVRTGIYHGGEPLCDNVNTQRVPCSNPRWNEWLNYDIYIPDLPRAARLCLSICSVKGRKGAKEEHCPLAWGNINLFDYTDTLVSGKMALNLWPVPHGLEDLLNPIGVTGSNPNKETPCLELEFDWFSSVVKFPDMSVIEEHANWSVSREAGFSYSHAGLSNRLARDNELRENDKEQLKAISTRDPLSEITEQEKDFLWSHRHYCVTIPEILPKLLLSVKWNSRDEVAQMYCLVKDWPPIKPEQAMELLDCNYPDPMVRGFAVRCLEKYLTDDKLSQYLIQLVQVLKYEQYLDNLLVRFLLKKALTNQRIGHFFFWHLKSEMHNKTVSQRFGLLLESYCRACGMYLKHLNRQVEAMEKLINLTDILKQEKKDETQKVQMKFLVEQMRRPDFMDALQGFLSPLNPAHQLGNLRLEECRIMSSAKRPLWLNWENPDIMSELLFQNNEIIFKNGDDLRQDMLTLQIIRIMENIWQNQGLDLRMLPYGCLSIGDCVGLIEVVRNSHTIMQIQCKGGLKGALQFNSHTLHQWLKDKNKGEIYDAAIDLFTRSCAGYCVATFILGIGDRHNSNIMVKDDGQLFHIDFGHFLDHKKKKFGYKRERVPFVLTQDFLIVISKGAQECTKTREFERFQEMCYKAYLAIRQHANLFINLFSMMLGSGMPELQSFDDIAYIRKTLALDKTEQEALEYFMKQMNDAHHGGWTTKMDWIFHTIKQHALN
Sequence of PI3K (P27986 whole entry partner): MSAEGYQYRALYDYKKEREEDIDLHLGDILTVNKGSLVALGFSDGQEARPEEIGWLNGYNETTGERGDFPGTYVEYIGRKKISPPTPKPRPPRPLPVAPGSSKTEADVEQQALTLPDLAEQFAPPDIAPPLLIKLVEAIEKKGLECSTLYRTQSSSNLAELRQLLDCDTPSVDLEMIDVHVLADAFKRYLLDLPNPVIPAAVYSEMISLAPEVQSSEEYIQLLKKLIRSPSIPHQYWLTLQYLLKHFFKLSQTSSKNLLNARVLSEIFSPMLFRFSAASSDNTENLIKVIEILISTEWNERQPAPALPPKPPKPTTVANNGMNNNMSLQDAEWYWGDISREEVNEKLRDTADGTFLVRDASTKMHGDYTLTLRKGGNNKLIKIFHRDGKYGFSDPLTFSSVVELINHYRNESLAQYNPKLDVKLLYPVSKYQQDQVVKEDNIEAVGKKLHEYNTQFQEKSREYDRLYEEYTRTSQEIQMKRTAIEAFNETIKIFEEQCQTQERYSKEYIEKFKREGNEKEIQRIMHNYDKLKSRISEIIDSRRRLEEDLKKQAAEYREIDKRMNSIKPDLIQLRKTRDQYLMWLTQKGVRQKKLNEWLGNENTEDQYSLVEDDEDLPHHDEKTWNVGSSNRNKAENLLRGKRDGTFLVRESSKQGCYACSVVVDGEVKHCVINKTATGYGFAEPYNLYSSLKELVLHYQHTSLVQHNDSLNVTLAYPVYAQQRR

SMILES	IC50 (PI3K) [nM]	IC50 (breast line MDA468; Homo sapiens, 72 h) [nM]	IC50 (prostate line LNCap; Homo sapiens, LNCaP, 72 h) [nM]	IC50 (breast line MDA468) [nM]	IC50 (prostate line LNCap) [nM]
O=C(Nc1ccc(-c2nc(N3CCOCC3)c3cnn(C4CCN(Cc5cccnc5)CC4)c3n2)cc1)Nc1ccsc1 [Compound 375, 1-(4-{4-morpholin-4-yl-1-[1-(pyridin-3-ylmethyl)piperidin-4-yl]-1H-pyrazolo[3,4-d]pyrimidin-6-yl}phenyl)-3-(3-thienyl)urea]	10	100	34	–	–
NCCNC(=O)Nc1ccc(-c2nc(N3CCOCC3)c3cnn(C4CCN(Cc5ccccc5)CC4)c3n2)cc1 [Compound 512, 1-(2-aminoethyl)-3-{4-[1-(1-benzylpiperidin-4-yl)-4-morpholin-4-yl-1H-pyrazolo[3,4-d]pyrimidin-6-yl]phenyl}urea]	14	2700	2000	–	–
O=C(c1ccc(Br)nc1)N1CCC(n2ncc3c(N4CCOCC4)nc(-c4ccc5[nH]ccc5c4)nc32)CC1 [Compound 203]	1160	3000	1050	–	–
CNC(=O)Nc1ccc(-c2nc(N3CCOCC3)c3cnn(C4CCN(C(=O)c5ccccn5)CC4)c3n2)cc1 [Example 418, 1-methyl-3-(4-{4-morpholin-4-yl-1-[1-(pyridin-2-ylcarbonyl)piperidin-4-yl]-1H-pyrazolo[3,4-d]pyrimidin-6-yl}phenyl)urea]	124	200	120	–	–
COc1cncc(-c2nc(N3CCOCC3)c3cnn(C)c3n2)c1 [Compound 11]	279	5000	4700	–	–
COC(=O)N1CCC(n2ncc3c(N4CCOCC4)nc(-c4ccc(NC(=O)Nc5ccccn5)cc4)nc32)CC1 [Compound 736, methyl 4-(4-morpholin-4-yl-6-{4-[(pyridin-2-ylcarbamoyl)amino]phenyl}-1H-pyrazolo[3,4-d]pyrimidin-1-yl)piperidine-1-carboxylate]	1150	17000	565	–	–
COC(=O)Nc1ccc(-c2nc(N3CCOCC3)c3cn[nH]c3n2)cc1 [Compound 279, methyl [4-(4-morpholin-4-yl-1H-pyrazolo[3,4-d]pyrimidin-6-yl)phenyl]carbamate]	612	12000	3000	–	–
CCNC(=S)N1CCC(n2ncc3c(N4CCOCC4)nc(-c4ccc(NC(=O)OC)cc4)nc32)CC1 [Compound 812, methyl [4-(1-{1-[(ethylamino)carbonothioyl]piperidin-4-yl}-4-morpholin-4-yl-1H-pyrazolo[3,4-d]pyrimidin-6-yl)phenyl]carbamate]	688	3000	2400	–	–
CCCCNC(=O)Nc1ccc(-c2nc(N3CCOCC3)c3cnn(C4CCN(Cc5cccnc5)CC4)c3n2)cc1 [Example 212, 1-Butyl-3-(4-{4-morpholin-4-yl-1-[1-(pyridin-3-ylmethyl)piperidin-4-yl]-1H-pyrazolo[3,4-d]pyrimidin-6-yl}phenyl)urea]	106	1400	370	–	–
O=C(Nc1ccncc1)Nc1ccc(-c2nc(N3CCOCC3)c3cnn(C4CCN(C(=O)c5cccnc5)CC4)c3n2)cc1 [Compound 591, 1-(4-{4-morpholin-4-yl-1-[1-(pyridin-3-ylcarbonyl)piperidin-4-yl]-1H-pyrazolo[3,4-d]pyrimidin-6-yl}phenyl)-3-pyridin-4-ylurea]	15	< 27	27	–	–
O=C(Nc1ccc(-c2nc(N3CCOCC3)c3cnn(C4CCN(CC(F)(F)F)CC4)c3n2)cc1)NC1CC1 [Compound 788, 1-cyclopropyl-3-(4-{4-morpholin-4-yl-1-[1-(2,2,2-trifluoroethyl)piperidin-4-yl]-1H-pyrazolo[3,4-d]pyrimidin-6-yl}phenyl)urea]	734	1600	120	–	–
CCONC(=O)Nc1ccc(-c2nc(N3CCOCC3)c3cnn(C4CCN(Cc5ccccc5)CC4)c3n2)cc1 [Compound 533, 1-{4-[1-(1-benzylpiperidin-4-yl)-4-morpholin-4-yl-1H-pyrazolo[3,4-d]pyrimidin-6-yl]phenyl}-3-ethoxyurea]	273	160	680	–	–
O=C(Nc1cc(F)c(-c2nc(N3CCOCC3)c3cnn(C4CCN(C(=O)c5cccnc5)CC4)c3n2)cc1F)NC1CC1 [Compound 468, 1-cyclopropyl-3-(2,5-difluoro-4-{4-morpholin-4-yl-1-[1-(pyridin-3-ylcarbonyl)piperidin-4-yl]-1H-pyrazolo[3,4-d]pyrimidin-6-yl}phenyl)urea]	3560	2200	1000	–	–
CNC(=O)Nc1ccc(-c2nc(N3CCOCC3)c3cnn([C@@H]4CCCNC4)c3n2)cc1 [Compound 875, 1-methyl-3-(4-{4-morpholin-4-yl-1-[(3R)-piperidin-3-yl]-1H-pyrazolo[3,4-d]pyrimidin-6-yl}phenyl)urea]	46	1250	1100	–	–
O=C(Nc1ccccc1)Nc1ccc(-c2nc(N3CCOCC3)c3cnn(C4CCN(C(=O)c5ccccc5)CC4)c3n2)cc1 [Compound 623, 1-{4-[1-(1-benzoylpiperidin-4-yl)-4-morpholin-4-yl-1H-pyrazolo[3,4-d]pyrimidin-6-yl]phenyl}-3-phenylurea]	16	50	< 27	–	–
C[C@@H]1COCCN1c1nc(-c2cccc(O)c2)nc2c1cnn2-c1ccccc1 [Compound 942, 3-{4-[(3R)-3-methylmorpholin-4-yl]-1-phenyl-1H-pyrazolo[3,4-d]pyrimidin-6-yl}phenol]	1390	10200	2800	–	–
COC(=O)Nc1ccc(-c2nc(N3CCOCC3)c3cnn(C4CCN(Cc5ccc(Cl)cc5)CC4)c3n2)cc1 [Compound 451, methyl (4-{1-[1-(4-chlorobenzyl)piperidin-4-yl]-4-morpholin-4-yl-1H-pyrazolo[3,4-d]pyrimidin-6-yl}phenyl)carbamate]	389	9000	2000	–	–
CNC(=O)Nc1ccc(-c2nc(N3CCOCC3)c3cnn(C4CCN(Cc5cccc(O)c5)CC4)c3n2)cc1 [Compound 642, 1-(4-{1-[1-(3-hydroxybenzyl)piperidin-4-yl]-4-morpholin-4-yl-1H-pyrazolo[3,4-d]pyrimidin-6-yl}phenyl)-3-methylurea]	28	–	–	420	140
O=C(NCCCO)Nc1ccc(-c2nc(N3CCOCC3)c3cnn(C4CCN(Cc5ccccc5)CC4)c3n2)cc1 [Compound 514, 1-{4-[1-(1-benzylpiperidin-4-yl)-4-morpholin-4-yl-1H-pyrazolo[3,4-d]pyrimidin-6-yl]phenyl}-3-(3-hydroxypropyl)urea]	364	650	80	–	–
C#CCNC(=O)Nc1ccc(-c2nc(N3CCOCC3)c3cnn(C4CCN(Cc5ccccc5)CC4)c3n2)cc1 [Compound 557, 1-{4-[1-(1-benzylpiperidin-4-yl)-4-morpholin-4-yl-1H-pyrazolo[3,4-d]pyrimidin-6-yl]phenyl}-3-prop-2-yn-1-ylurea]	173	3900	400	–	–
O=C(Nc1ccc(-c2nc(N3CCOCC3)c3cnn(C4CCN(C(=O)c5ccccc5)CC4)c3n2)cc1)Nc1cccnc1 [Compound 624, 1-{4-[1-(1-benzoylpiperidin-4-yl)-4-morpholin-4-yl-1H-pyrazolo[3,4-d]pyrimidin-6-yl]phenyl}-3-pyridin-3-ylurea]	34	< 27	–	–	< 27
O=C(NC1CCCC1)c1ccc(-c2nc(N3CCOCC3)c3cnn(C4CCN(Cc5ccccc5)CC4)c3n2)cc1 [Example 70]	3870	15000	3000	–	–
C=CC(=O)Nc1ccc(-c2nc(N3CCOCC3)c3cn[nH]c3n2)cc1 [Compound 280, N-[4-(4-morpholin-4-yl-1H-pyrazolo[3,4-d]pyrimidin-6-yl)phenyl]acrylamide]	601	7000	3400	–	–
COC(=O)N1CCC(n2ncc3c(N4CCOCC4)nc(-c4ccc(NC(=O)OCCN5CCCC5)cc4)nc32)CC1 [Compound 905, methyl 4-[4-morpholin-4-yl-6-(4-{[(2-pyrrolidin-1-ylethoxy)carbonyl]amino}phenyl)-1H-pyrazolo[3,4-d]pyrimidin-1-yl]piperidine-1-carboxylate]	250	4500	1400	–	–
CNC(=S)Nc1ccc(-c2nc(N3CCOCC3)c3cnn(C4CCN(C(=O)OC)CC4)c3n2)cc1 [Compound 742, methyl 4-[6-(4-{[(methylamino)carbonothioyl]amino}phenyl)-4-morpholin-4-yl-1H-pyrazolo[3,4-d]pyrimidin-1-yl]piperidine-1-carboxylate]	153	220	50	–	–
O=C(NCC1CC1)Nc1ccc(-c2nc(N3CCOCC3)c3cnn(C4CCN(Cc5ccccc5)CC4)c3n2)cc1 [Compound 508, 1-{4-[1-(1-benzylpiperidin-4-yl)-4-morpholin-4-yl-1H-pyrazolo[3,4-d]pyrimidin-6-yl]phenyl}-3-(cyclopropylmethyl)urea]	384	3000	700	–	–
Oc1cccc(-c2nc(N3CCOCC3)c3cnn(C4CCN(Cc5ccc(Cl)cc5)CC4)c3n2)c1 [Compound 19]	11	1700	450	–	–
CNC(=O)Nc1ccc(-c2nc(N3CCOCC3)c3cnn(C4CCN(C(=O)c5cccnc5)CC4)c3n2)cc1 [Compound 219]	548	600	150	–	–
OCCN1CCC(n2ncc3c(N4CCOCC4)nc(-c4ccc5[nH]ccc5c4)nc32)CC1 [Compound 246, 2-{4-[6-(1H-indol-5-yl)-4-morpholin-4-yl-1H-pyrazolo[3,4-d]pyrimidin-1-yl]piperidin-1-yl}ethanol]	3990	3000	1800	–	–
